Test results from patent publication US8455475B2 (Gruenenthal GmbH, priority 2009, dated 2013).

These compounds were tested against T1, rat B1R (bradykinin receptor 1) (Rattus norvegicus, UniProt P97583) (assay: FLIPR Ca2+ assay (Fluo-4) on CHO K1 cells stably transfected with the B1R gene of the rat (rB1R cells): % inhibition at 10 μM / IC50, agonist Des-Arg9-bradykinin). Settings: CHO-K1, rat B1R.
T1 construct: expressed in transfected cells; host or cells: CHO K1 cells
T1 sequence (P97583 1-337): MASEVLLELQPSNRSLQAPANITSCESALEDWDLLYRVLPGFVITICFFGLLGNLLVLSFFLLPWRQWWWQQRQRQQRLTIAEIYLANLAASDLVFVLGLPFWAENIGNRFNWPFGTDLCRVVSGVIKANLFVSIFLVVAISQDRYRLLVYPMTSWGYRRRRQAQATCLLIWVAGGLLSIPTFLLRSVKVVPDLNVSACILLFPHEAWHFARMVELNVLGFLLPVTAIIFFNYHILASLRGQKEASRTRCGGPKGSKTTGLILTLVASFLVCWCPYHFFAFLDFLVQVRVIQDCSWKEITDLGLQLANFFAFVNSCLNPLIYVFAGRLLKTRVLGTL
Assay type: cell-based
Summary of the method: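 Antagonism is measured as the drop in peak Fluo-4 Ca2+ signal when the EC80 agonist follows 10–20 min compound exposure. The single-point screen uses 10 μM; IC50 uses several concentrations. Values are given as % of maximal achievable inhibition.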

| inhibition at 10 µM | SMILES |
| --- | --- |
| 104% | O=C(NC1CCc2ccc(C(=O)N3CCC4(CC3)CCN(c3ccncc3)C4)cc21)C1CCCCC1 (stereo not shown) [IND_CC-366, N-[6-(2-Pyridin-4-yl-2,8-diazaspiro[4.5]decane-8-carbonyl)-2,3-dihydro-1H-inden-1-yl]-cyclohexanecarboxylic acid amide] |
| 104% | O=C(NC1CCc2ccc(C(=O)N3CCC4(CCN(c5ccncc5)CC4)C3)cc21)C1CCCCC1 (stereo not shown) [IND_CC-367, N-[6-(8-Pyridin-4-yl-2,8-diazaspiro[4.5]decane-2-carbonyl)-2,3-dihydro-1H-inden-1-yl]-cyclohexanecarboxylic acid amide] |
| 87% | O=C(NC1CCc2ccc(C(=O)N3CCC4(CC3)CCN(c3ccncc3)CC4)cc21)C1CC1 (stereo not shown) [IND_CC-368, N-[6-(9-Pyridin-4-yl-3,9-diazaspiro[5.5]undecane-3-carbonyl)-2,3-dihydro-1H-inden-1-yl]-cyclopropanecarboxylic acid amide] |
| 74% | CN(C(=O)C1CC1)C1CCc2ccc(C(=O)N3CCC4(CC3)CCN(c3ccncc3)CC4)cc21 (stereo not shown) [IND_CC-369, N-Methyl-N-[6-(9-pyridin-4-yl-3,9-diazaspiro[5.5]undecane-3-carbonyl)-2,3-dihydro-1H-inden-1-yl]-cyclopropanecarboxylic acid amide] |
| 100% | O=C(NC1CCc2ccc(C(=O)N3CCC4(CCN(c5ccncc5)CC4)C3)cc21)C1CC1 (stereo not shown) [IND_CC-370, N-[6-(8-Pyridin-4-yl-2,8-diazaspiro[4.5]decane-2-carbonyl)-2,3-dihydro-1H-inden-1-yl]-cyclopropanecarboxylic acid amide] |
| 104% | CC(C)(C)CC(=O)NC1CCc2ccc(C(=O)N3CCC4(CC3)CCN(c3ccncc3)CC4)cc21 (stereo not shown) [IND_CC-371, 3,3-Dimethyl-N-[6-(9-pyridin-4-yl-3,9-diazaspiro[5.5]undecane-3-carbonyl)-2,3-dihydro-1H-inden-1-yl]-butyramide] |
| 105% | CN(C(=O)CC(C)(C)C)C1CCc2ccc(C(=O)N3CCC4(CC3)CCN(c3ccncc3)CC4)cc21 (stereo not shown) [IND_CC-372, N,3,3-Trimethyl-N-[6-(9-pyridin-4-yl-3,9-diazaspiro[5.5]undecane-3-carbonyl)-2,3-dihydro-1H-inden-1-yl]-butyramide] |
| 102% | CC(C)(C)CC(=O)NC1CCc2ccc(C(=O)N3CCC4(CC3)CCN(c3ccncc3)C4)cc21 (stereo not shown) [IND_CC-373, 3,3-Dimethyl-N-[6-(2-pyridin-4-yl-2,8-diazaspiro[4.5]decane-8-carbonyl)-2,3-dihydro-1H-inden-1-yl]-butyramide] |
| 103% | CC(C)(C)CC(=O)NC1CCc2ccc(C(=O)N3CCC4(CCN(c5ccncc5)CC4)C3)cc21 (stereo not shown) [IND_CC-374, 3,3-Dimethyl-N-[6-(8-pyridin-4-yl-2,8-diazaspiro[4.5]decane-2-carbonyl)-2,3-dihydro-1H-inden-1-yl]-butyramide] |
| 59% | CC(=O)NC1CCc2ccc(C(=O)N3CCC4(CCN(c5ccncc5)CC4)C3)cc21 (stereo not shown) [IND_CC-375, N-[6-(8-Pyridin-4-yl-2,8-diazaspiro[4.5]decane-2-carbonyl)-2,3-dihydro-1H-inden-1-yl]-acetamide] |
| 102% | O=C(NC1CCc2ccc(C(=O)N3CCC4(CC3)CCN(c3ccncc3)CC4)cc21)c1c(F)cccc1C(F)(F)F (stereo not shown) [IND_CC-376, 2-Fluoro-N-[6-(9-pyridin-4-yl-3,9-diazaspiro[5.5]undecane-3-carbonyl)-2,3-dihydro-1H-inden-1-yl]-6-(trifluoromethyl)-benzamide] |
| 104% | O=C(NC1CCc2ccc(C(=O)N3CCC4(CC3)CCN(c3ccncc3)C4)cc21)c1c(F)cccc1C(F)(F)F (stereo not shown) [IND_CC-377, 2-Fluoro-N-[6-(2-pyridin-4-yl-2,8-diazaspiro[4.5]decane-8-carbonyl)-2,3-dihydro-1H-inden-1-yl]-6-(trifluoromethyl)-benzamide] |
| 104% | O=C(NC1CCc2ccc(C(=O)N3CCC4(CCN(c5ccncc5)CC4)C3)cc21)c1c(F)cccc1C(F)(F)F (stereo not shown) [IND_CC-378, 2-Fluoro-N-[6-(8-pyridin-4-yl-2,8-diazaspiro[4.5]decane-2-carbonyl)-2,3-dihydro-1H-inden-1-yl]-6-(trifluoromethyl)-benzamide] |
| 103% | O=C(NC1CCc2ccc(C(=O)N3CCC4(CC3)CCN(c3ccncc3)CC4)cc21)c1ccc(F)cc1C(F)(F)F (stereo not shown) [IND_CC-379, 4-Fluoro-N-[6-(9-pyridin-4-yl-3,9-diazaspiro[5.5]undecane-3-carbonyl)-2,3-dihydro-1H-inden-1-yl]-2-(trifluoromethyl)-benzamide] |
| 103% | CN(C(=O)c1ccc(F)cc1C(F)(F)F)C1CCc2ccc(C(=O)N3CCC4(CC3)CCN(c3ccncc3)CC4)cc21 (stereo not shown) [IND_CC-380, 4-Fluoro-N-methyl-N-[6-(9-pyridin-4-yl-3,9-diazaspiro[5.5]undecane-3-carbonyl)-2,3-dihydro-1H-inden-1-yl]-2-(trifluoromethyl)-benzamide] |
| 104% | O=C(NC1CCc2ccc(C(=O)N3CCC4(CC3)CCN(c3ccncc3)C4)cc21)c1ccc(F)cc1C(F)(F)F (stereo not shown) [IND_CC-381, 4-Fluoro-N-[6-(2-pyridin-4-yl-2,8-diazaspiro[4.5]decane-8-carbonyl)-2,3-dihydro-1H-inden-1-yl]-2-(trifluoromethyl)-benzamide] |
| 103% | O=C(NC1CCc2ccc(C(=O)N3CCC4(CCN(c5ccncc5)CC4)C3)cc21)c1ccc(F)cc1C(F)(F)F (stereo not shown) [IND_CC-382, 4-Fluoro-N-[6-(8-pyridin-4-yl-2,8-diazaspiro[4.5]decane-2-carbonyl)-2,3-dihydro-1H-inden-1-yl]-2-(trifluoromethyl)-benzamide] |
| 102% | O=C(NC1CCc2ccc(C(=O)N3CCC4(CC3)CCN(c3ccncc3)CC4)cc21)c1c(F)cccc1F (stereo not shown) [IND_CC-383, 2,6-Difluoro-N-[6-(9-pyridin-4-yl-3,9-diazaspiro[5.5]undecane-3-carbonyl)-2,3-dihydro-1H-inden-1-yl]-benzamide] |
| 104% | CN(C(=O)c1c(F)cccc1F)C1CCc2ccc(C(=O)N3CCC4(CC3)CCN(c3ccncc3)CC4)cc21 (stereo not shown) [IND_CC-384, 2,6-Difluoro-N-methyl-N-[6-(9-pyridin-4-yl-3,9-diazaspiro[5.5]undecane-3-carbonyl)-2,3-dihydro-1H-inden-1-yl]-benzamide] |
| 104% | O=C(NC1CCc2ccc(C(=O)N3CCC4(CC3)CCN(c3ccncc3)C4)cc21)c1c(F)cccc1F (stereo not shown) [IND_CC-385, 2,6-Difluoro-N-[6-(2-pyridin-4-yl-2,8-diazaspiro[4.5]decane-8-carbonyl)-2,3-dihydro-1H-inden-1-yl]-benzamide] |
| 104% | O=C(NC1CCc2ccc(C(=O)N3CCC4(CCN(c5ccncc5)CC4)C3)cc21)c1c(F)cccc1F (stereo not shown) [IND_CC-386, 2,6-Difluoro-N-[6-(8-pyridin-4-yl-2,8-diazaspiro[4.5]decane-2-carbonyl)-2,3-dihydro-1H-inden-1-yl]-benzamide] |
| 104% | Cc1cccc(C(=O)N(C)C2CCc3ccc(C(=O)N4CCC5(CC4)CCN(c4ccncc4)CC5)cc32)c1C (stereo not shown) [IND_CC-387, N,2,3-Trimethyl-N-[6-(9-pyridin-4-yl-3,9-diazaspiro[5.5]undecane-3-carbonyl)-2,3-dihydro-1H-inden-1-yl]-benzamide] |
| 101% | Cc1cccc(C(=O)NC2CCc3ccc(C(=O)N4CCC5(CC4)CCN(c4ccncc4)C5)cc32)c1C (stereo not shown) [IND_CC-388, 2,3-Dimethyl-N-[6-(2-pyridin-4-yl-2,8-diazaspiro[4.5]decane-8-carbonyl)-2,3-dihydro-1H-inden-1-yl]-benzamide] |
| 103% | Cc1cccc(C(=O)NC2CCc3ccc(C(=O)N4CCC5(CCN(c6ccncc6)CC5)C4)cc32)c1C (stereo not shown) [IND_CC-389, 2,3-Dimethyl-N-[6-(8-pyridin-4-yl-2,8-diazaspiro[4.5]decane-2-carbonyl)-2,3-dihydro-1H-inden-1-yl]-benzamide] |
| 100% | CN(C1CCc2ccc(C(=O)N3CCC4(CC3)CCN(c3ccncc3)CC4)cc21)S(=O)(=O)Cc1cccc(C(F)(F)F)c1 (stereo not shown) [IND_CC-390, N-Methyl-N-[6-(9-pyridin-4-yl-3,9-diazaspiro[5.5]undecane-3-carbonyl)-2,3-dihydro-1H-inden-1-yl]-1-[3-(trifluoromethyl)phenyl]-methanesulfonic acid amide] |
| 103% | O=C(NC1CCc2ccc(C(=O)N3CCC4(CC3)CCN(c3ccncc3)CC4)cc21)C1CCCC1 (stereo not shown) [IND_CC-391, N-[6-(9-Pyridin-4-yl-3,9-diazaspiro[5.5]undecane-3-carbonyl)-2,3-dihydro-1H-inden-1-yl]-cyclopentanecarboxylic acid amide] |
| 102% | CN(C(=O)C1CCCC1)C1CCc2ccc(C(=O)N3CCC4(CC3)CCN(c3ccncc3)CC4)cc21 (stereo not shown) [IND_CC-392, N-Methyl-N-[6-(9-pyridin-4-yl-3,9-diazaspiro[5.5]undecane-3-carbonyl)-2,3-dihydro-1H-inden-1-yl]-cyclopentanecarboxylic acid amide] |
| 103% | O=C(NC1CCc2ccc(C(=O)N3CCC4(CC3)CCN(c3ccncc3)C4)cc21)C1CCCC1 (stereo not shown) [IND_CC-393, N-[6-(2-Pyridin-4-yl-2,8-diazaspiro[4.5]decane-8-carbonyl)-2,3-dihydro-1H-inden-1-yl]-cyclopentanecarboxylic acid amide] |
